Measurements as given in patent US11034751B1, “Methods and compositions for treating cancer using serotonin receptor inhibitors” (Flagship Pioneering Innovations V, Inc., priority 2018, dated 2021).

Test system: macrophages
Test: IL8 secretion by macrophages incubated with serotonin receptor agonists (bead-based immunoassay)
Format: cell-based
Conditions: human monocyte-derived macrophages (M-CSF)
Description: CD14+ monocytes were isolated from human PBMCs using negative magnetic bead selection (Stemcell Technologies) on day 0. Cells were cultured with M-CSF to differentiate monocytes to macrophages. On day 6, cells were treated with LP44 (high affinity 5-HT7 agonist), BW 723C86 hydrochloride (5-HT2B agonist), MK 212 hydrochloride (5-HT2C agonist) (Sigma-Aldrich), at concentrations 1 μM and 10 μM overnight. Supernatant was collected and bead-based immunoassays (Biolegend) were performed to detect changes in cytokine secretion.
Across multiple human donors, secretion of the inflammatory cytokine, IL8, by macrophages was decreased after addition of each of the HTR2B, HTR2C, and HTR7 agonists, as show in Table 18 below.

Structure (SMILES) | Fold change of IL-8 (Normalized to Macs + LPS with no compound treatment) (1 μM overnight) | Fold change of IL-8 (Normalized to Macs + LPS with no compound treatment) (10 μM overnight)
Clc1cncc(N2CCNCC2)n1 [MK212] | 0.502 | 0.484
CSc1ccccc1N1CCN(CCCCCC(=O)NC2CCCc3ccccc32)CC1 (stereo not drawn) [LP44] | 0.340 | 0.427
CC(N)Cc1c[nH]c2ccc(OCc3cccs3)cc12.Cl (stereo not drawn) [BW723086] | 0.670 | 0.508
